Laboratory results published in patent publication US10688099B2, “Methods for modulating the amount of RNA transcripts” (PTC Therapeutics, Inc., priority 2013, dated 2020).

System: RNA isoforms in PNN 1-46 SMA type I patient-derived fibroblasts
Test: RNA Abundance Modulation (RNA isoform abundance, iFPM, HiSeq RNA sequencing)
Assay type: cell-based, human
Conditions: 3 μM
Protocol: Cells from a cell line of interest are cultured in conditions sufficient to yield the number of cells capable of generating enough RNA for subsequent sequencing steps. Cells from the tested cell line are contacted with a compound described herein.
To culture said cells, they are seeded, at appropriate concentrations in a volume of media in a cell culture container and incubated for 4, 5, 6, 7, 8, 9, 10, or more hours. A concentrated solution of compound in a vehicle (e.g., DMSO) is then added in sufficient volume to result in the intended final concentration of the compound, for example 100 nM, 500 nM, 1 μM, 5 μM, 10 μM, 15 μM, 20 μM, or more. The cells may also be treated with vehicle alone, as a control. A number of replicates of each concentration or control may be made (e.g., 2 replicates). The cells are then incubated at a constant temperature appropriate for cell culture of the particular cell line (e.g., 37° C.) for 6, 12, 18, 24, 48, or more hours. After incubation, the growth medium is removed and the cells are washed with the appropriate buffer (e.g., PBS). Cells are then removed from adherence to the cell culture container by treatment with a solution containing trypsin, and the trypsin subsequently quenched with the appropriate volume of buffer (e.g., DMEM-FBS). The cells are then pelleted with gentle centrifugation (e.g., ≤90×g centrifugal force) and resuspended in a buffer to lyse the cells for extraction of RNA. The cell lysates may then be frozen (e.g., at −80° C.) or, alternately, may immediately be used in a procedure to purify the RNA (e.g. by use of the RNEASY PLUS® minikit). The RNA from cell lysates is eluted in the appropriate volume of buffer (e.g., RNEASE-FREE H2O®). The resulting purified RNA may then be sequenced (e.g., using RNASeq) or analyzed using a human exon array (e.g., by GENECHIP® human exon array) to determine changes in the RNA levels in those cells treated with compound compared to those cells treated only with DMSO. The purified RNA may also be quantified by other methods known in the art.
Using the RNA data obtained from sequencing, exon array, or other methods, a statistical analysis can reveal changes in the RNA levels of compound-treated compared with control. For example, t-test p-values may be calculated for the data obtained through sequencing and exon array methods in order to compare compound-treated cells to those treated with the DMSO control. […] Analysis of the sequencing and exon array data may then also yield predictions about the cause of the aberrant amount of an RNA transcript in the cells (e.g., perturbation of RNA splicing, RNA transcription, or RNA stability). These predictions may be further confirmed by methods known in the art. For example, RT-PCR and RT-qPCR may be used to confirm the change in amount of RNA transcripts for one or more particular transcripts of interest.
Following the methods described above in Example 1, PNN 1-46 SMA type I patient-derived fibroblasts were treated with 300 nM or 3 μM Compounds 774 and 808 in 0.5% DMSO.
700,000 cells were seeded in 10 mL of medium (DMEM plus 10% FBS) in a T-75 flask. Cells were allowed to attach for at least 4 hrs, after which 50 μL of a 200× compound solution (100% DMSO) was added to each well, and the plate was incubated at 37° C. for 24 hrs.
At the end of the incubation period, the supernatant was removed and the cells where washed with PBS. TrypLE (Invitrogen) express solution was added (e.g. 1.5 mL per one T75 flask). The flasks were incubated for 3 to 5 min at 37° C. The trypsin was then quenched, e.g., by adding 10 mL DMEM-FBS.
Next, the cells were pelleted using gentle centrifugation without exceeding 90×g centrifugal force. The supernatant was removed and the cell pellet was re-suspended in 600 μL RLT buffer (the RLT buffer was supplemented with beta-mercaptoethanol according to the RNeasy protocol manual) by pipetting up and down until the pellet was completely dissolved […]

CCc1nc(C)cn2nc(-c3cc(=O)n4cc(C5CCN(C)CC5)cc(C)c4n3)cc12 [Compound 774]
L2FC (x + 1) (TBC1D15 NR_027449): −2.621 | L2abs (Cpd-DMSO) (TBC1D15 NR_027449): 6.94 | abs (Cpd-DMSO) (TBC1D15 NR_027449): 123 iFPM | amp FC (x + 1) (TBC1D15 NR_027449): 6.15 | ave Cpd (TBC1D15 NR_027449): 23 iFPM | FC (x + 1) (TEP1 AB209669): 1.0000 | L2FC (x + 1) (TEP1 AB209669): 0.000 | L2abs (Cpd-DMSO) (TEP1 AB209669): 0 | abs (Cpd-DMSO) (TEP1 AB209669): 0 iFPM | amp FC (x + 1) (TEP1 AB209669): 1.00 | ave Cpd (TEP1 AB209669): 0 iFPM | FC (x + 1) (TEP1 AK303307): 1.3304 | L2FC (x + 1) (TEP1 AK303307): 0.412 | L2abs (Cpd-DMSO) (TEP1 AK303307): 1.91 | abs (Cpd-DMSO) (TEP1 AK303307): 4 iFPM | amp FC (x + 1) (TEP1 AK303307): 1.33 | ave Cpd (TEP1 AK303307): 14 iFPM | FC (x + 1) (TEP1 BC143812): 0.8125 | L2FC (x + 1) (TEP1 BC143812): −0.300 | L2abs (Cpd-DMSO) (TEP1 BC143812): 4.99 | abs (Cpd-DMSO) (TEP1 BC143812): 32 iFPM | amp FC (x + 1) (TEP1 BC143812): 1.23 | ave Cpd (TEP1 BC143812): 137 iFPM | FC (x + 1) (TEP1 BC143815): 0.0138 | L2FC (x + 1) (TEP1 BC143815): −6.184 | L2abs (Cpd-DMSO) (TEP1 BC143815): 6.16 | abs (Cpd-DMSO) (TEP1 BC143815): 72 iFPM | amp FC (x + 1) (TEP1 BC143815): 72.71 | ave Cpd (TEP1 BC143815): 0 iFPM | FC (x + 1) (TEP1 BX640983): 1.1188 | L2FC (x + 1) (TEP1 BX640983): 0.162 | L2abs (Cpd-DMSO) (TEP1 BX640983): 0.61 | abs (Cpd-DMSO) (TEP1 BX640983): 2 iFPM | amp FC (x + 1) (TEP1 BX640983): 1.12 | ave Cpd (TEP1 BX640983): 13 iFPM | FC (x + 1) (TEP1 NM_007110): 1.0236 | L2FC (x + 1) (TEP1 NM_007110): 0.034 | L2abs (Cpd-DMSO) (TEP1 NM_007110): 3.20 | abs (Cpd-DMSO) (TEP1 NM_007110): 9 iFPM | amp FC (x + 1) (TEP1 NM_007110): 1.02 | ave Cpd (TEP1 NM_007110): 397 iFPM | FC (x + 1) (TFCP2 AK308087): 0.8370 | L2FC (x + 1) (TFCP2 AK308087): −0.257 | L2abs (Cpd-DMSO) (TFCP2 AK308087): 4.27 | abs (Cpd-DMSO) (TFCP2 AK308087): 19 iFPM | amp FC (x + 1) (TFCP2 AK308087): 1.19 | ave Cpd (TFCP2 AK308087): 98 iFPM | FC (x + 1) (TFCP2 NM_005653): 0.8324 | L2FC (x + 1) (TFCP2 NM_005653): −0.265 | L2abs (Cpd-DMSO) (TFCP2 NM_005653): 7.35 | abs (Cpd-DMSO) (TFCP2 NM_005653): 163 iFPM | amp FC (x + 1) (TFCP2 NM_005653): 1.20 | ave Cpd (TFCP2 NM_005653): 808 iFPM | FC (x + 1) (TFCP2 NM_001173452): 4.0384 | L2FC (x + 1) (TFCP2 NM_001173452): 2.014 | L2abs (Cpd-DMSO) (TFCP2 NM_001173452): 7.49 | abs (Cpd-DMSO) (TFCP2 NM_001173452): 180 iFPM | amp FC (x + 1) (TFCP2 NM_001173452): 4.04 | ave Cpd (TFCP2 NM_001173452): 239 iFPM | FC (x + 1) (TFCP2 NM_001173453): 0.0531 | L2FC (x + 1) (TFCP2 NM_001173453): −4.236 | L2abs (Cpd-DMSO) (TFCP2 NM_001173453): 4.16 | abs (Cpd-DMSO) (TFCP2 NM_001173453): 18 iFPM | amp FC (x + 1) (TFCP2 NM_001173453): 18.84 | ave Cpd (TFCP2 NM_001173453): 0 iFPM | FC (x + 1) (TGFBRAP1 AK021697): 0.2793 | L2FC (x + 1) (TGFBRAP1 AK021697): −1.840 | L2abs (Cpd-DMSO) (TGFBRAP1 AK021697): 4.66 | abs (Cpd-DMSO) (TGFBRAP1 AK021697): 25 iFPM | amp FC (x + 1) (TGFBRAP1 AK021697): 3.58 | ave Cpd (TGFBRAP1 AK021697): 9 iFPM | FC (x + 1) (TGFBRAP1 NM_004257): 0.0064 | L2FC (x + 1) (TGFBRAP1 NM_004257): −7.294 | L2abs (Cpd-DMSO) (TGFBRAP1 NM_004257): 7.29 | abs (Cpd-DMSO) (TGFBRAP1 NM_004257): 156 iFPM
